Experimental data published in patent US20240398817A1, “CARDIO- AND RENOSAFE ANTIDIABETIC THERAPY” (priority 2018, published 2024).

Test system: patients with type 2 diabetes at high vascular risk
Experiment: Cardiovascular and Renal Outcomes Trial: linagliptin 5 mg once daily vs placebo on top of standard of care
Format: in vivo
Conditions: for Hazard ratio for hospitalised heart failure: vs placebo
Description: The effect of linagliptin on cardiovascular risk in adult patients with type 2 diabetes mellitus and with increased CV risk evidenced by a history of established macrovascular or renal disease (e.g. as defined herein) was evaluated in a multi-center, multi-national, randomized, double-blind parallel group trial. The trial compared the risk of experiencing a major adverse cardiovascular event (MACE) between linagliptin and placebo when these were added to and used concomitantly with standard of care treatments for diabetes (HbA1c), cardiovascular risk factors and renal disease.
The primary endpoint in this trial was the time to first occurrence of three point (3P) MACE. A major adverse cardiac event was defined as a cardiovascular death or a nonfatal myocardial infarction (MI) or a nonfatal stroke. The statistical analysis plan tested for non-inferiority for the occurrence of (3P) MACE. […] The secondary endpoint was a renal composite, defined as renal death or sustained end stage renal disease or sustained decrease of 40% or more in eGFR.
Type 2 diabetes patient with insufficient glycemic control (naïve or pre-treated with any antidiabetic background medication, excluding treatment with GLP-1 receptor agonists, DPP-4inhibitors or SGLT-2 inhibitors if ≥consecutive 7 days, e.g. having HbA1c 6.5-10%), and high risk of cardiovascular events, e.g. defined by: • albuminuria (micro or macro) and previous macrovascular disease: e.g. defined according to Condition I as indicated below; • and/or • impaired renal function: e.g. as defined according to Condition II as indicated below;
Background and aims: People with type 2 diabetes (T2D) are at increased risk for hospitalization for heart failure (hHF), particularly in the setting of concomitant cardiovascular (CV) and/or kidney disease. […] Here we present analyses of HF outcomes with the DPP-4 inhibitor linagliptin (LINA) vs. placebo (PBO) from a Cardiovascular and Renal Outcomes Trial assessing cardiovascular safety and renal microvascular outcome in patients with type 2 diabetes at high vascular risk, a large CV outcomes trial that enrolled participants with T2D at high risk for hHF due to concomitant CV and/or chronic kidney disease. Materials and methods: People with T2D and concomitant CV and/or kidney disease were randomized to receive LINA 5 mg, or PBO once daily (1:1), on top of standard of care. All hHF, CV outcomes, and deaths were centrally adjudicated, with individual and composite HF-related outcomes analyses comparing LINA vs. placebo. Investigator-reported HF-related adverse events, whether or not confirmed by adjudication, were also analyzed. A Cox proportional hazards model adjusting for region and history of HF was used for analyses of first events. Recurrent hHF events were analyzed using a negative binomial model.
Methods: The present Cardiovascular and Renal Outcomes Trial randomized people with T2D and i) concomitant CV disease with UACR >30 mg/g or ii) prevalent CKD (i.e. GFR <45 ml/min/1.73m2 and/or UACR >200 mg/g) to receive the DPP-4 inhibitor linagliptin (5 mg) or placebo once daily in a double-blind fashion. The primary CV endpoint was 3P-MACE, with a key secondary kidney endpoint (adjudicated ESKD, renal death, or sustained ≥40% decrease in eGFR from baseline) and other renal outcomes (including albuminuria and eGFR slope) also assessed. Subgroups were assessed by baseline kidney function (eGFR ≥/<45 ml/min/1.73m2and eGFR ≥/<30, 45 or 60 ml/min/1.73m2).
Adults with type 2 diabetes, HbA1c 6.5-10.0% inclusive, and high CV risk were eligible for inclusion. […] Macrovascular disease eligibility criteria was based on documented and confirmed history of myocardial infarction, coronary artery disease, stroke, carotid artery disease, or peripheral artery disease. Participants with end-stage kidney disease (ESKD), defined as eGFR <15 or requiring maintenance dialysis, were excluded.

[1] = Duration of type 2 diabetes ≥10 years
[2] = Established macrovascular disease and albuminuria No
[3] = Established macrovascular disease and albuminuria Yes
[4] = Estimated glomerular filtration rate <30 mL/min/1.73 m^2
[5] = Estimated glomerular filtration rate ≥30 to <45 mL/min/1.73 m^2
[6] = Estimated glomerular filtration rate ≥45 to <60 mL/min/1.73 m^2
[7] = Estimated glomerular filtration rate ≥60 mL/min/1.73 m^2

For `CC#CCn1c(N2CCC[C@@H](N)C2)nc2c1c(=O)n(Cc1nc(C)c3ccccc3n1)c(=O)n2C` [Linagliptin, 1-[(4-methyl-quinazolin-2-yl)methyl]-3-methyl-7-(2-butyn-1-yl)-8-(3-(R)-amino-piperidin-1-yl)-xanthine], the “3-point MACE: patients with event/patients analyzed” value [1] was 316/2277, the “Key secondary kidney outcome: hazard ratio vs placebo” value [1] was 0.97 and the “Key secondary kidney outcome: patients with event/patients analyzed” value [1] was 230/2277. For the same molecule, the “Patients with event/patients analysed, hospitalised heart failure” value (shortened to “Patients with event/patients analysed”) [1] was 149/2277, the “Hazard ratio for hospitalised heart failure” value [1] was 0.89 and the “3-point MACE: hazard ratio vs placebo” value [2] was 1.13. For the same molecule, the “3-point MACE: patients with event/patients analyzed” value [2] was 198/1486, the “Key secondary kidney outcome: hazard ratio vs placebo” value [2] was 1.03 and the “Key secondary kidney outcome: patients with event/patients analyzed” value [2] was 215/1486. The “Patients with event/patients analysed” value [2] was 96/1486, the “Hazard ratio for hospitalised heart failure” value [2] was 0.87 and the “3-point MACE: hazard ratio vs placebo” value [3] was 0.94. For the same molecule, the “3-point MACE: patients with event/patients analyzed” value [3] was 236/2008, the “Key secondary kidney outcome: hazard ratio vs placebo” value [3] was 1.11 and the “Key secondary kidney outcome: patients with event/patients analyzed” value [3] was 112/2008. The “Patients with event/patients analysed” value [3] was 113/2008, the “Hazard ratio for hospitalised heart failure” value [3] was 0.93 and the “3-point MACE: hazard ratio vs placebo” value (Established renal disease No) was 0.98. For the same molecule, the “3-point MACE: patients with event/patients analyzed” value (Established renal disease No) was 120/1385, the “Key secondary kidney outcome: hazard ratio vs placebo” value (Established renal disease No) was 1.20 and the “Key secondary kidney outcome: patients with event/patients analyzed” value (Established renal disease No) was 38/1385. The “Patients with event/patients analysed” value (Established renal disease No) was 47/1385, the “Hazard ratio for hospitalised heart failure” value (Established renal disease No) was 1.19 and the “3-point MACE: hazard ratio vs placebo” value (Established renal disease Yes) was 1.04. The “3-point MACE: patients with event/patients analyzed” value (Established renal disease Yes) was 314/2109, the “Key secondary kidney outcome: hazard ratio vs placebo” value (Established renal disease Yes) was 1.00 and the “Key secondary kidney outcome: patients with event/patients analyzed” value (Established renal disease Yes) was 289/2109. For the same molecule, the “Patients with event/patients analysed” value (Established renal disease Yes) was 162/2109, the “Hazard ratio for hospitalised heart failure” value (Established renal disease Yes) was 0.84 and the “Patients with event/patients analysed” value [4] was 59/516. For the same molecule, the “Hazard ratio for hospitalised heart failure” value [4] was 0.94, the “Patients with event/patients analysed” value [5] was 76/994 and the “Hazard ratio for hospitalised heart failure” value [5] was 0.85. The “Patients with event/patients analysed” value [6] was 38/690, the “Hazard ratio for hospitalised heart failure” value [6] was 1.06 and the “Patients with event/patients analysed” value [7] was 36/1294. The “Hazard ratio for hospitalised heart failure” value [7] was 0.88, the “3-point MACE: hazard ratio vs placebo” value (Ethnicity Hispanic/Latino) was 1.13 and the “3-point MACE: patients with event/patients analyzed” value (Ethnicity Hispanic/Latino) was 143/1227. The “Key secondary kidney outcome: hazard ratio vs placebo” value (Ethnicity Hispanic/Latino) was 1.10, the “Key secondary kidney outcome: patients with event/patients analyzed” value (Ethnicity Hispanic/Latino) was 156/1227 and the “Patients with event/patients analysed” value (Ethnicity Hispanic/Latino) was 58/1227. The “Hazard ratio for hospitalised heart failure” value (Ethnicity Hispanic/Latino) was 0.96, the “3-point MACE: hazard ratio vs placebo” value (Ethnicity Not Hispanic/Latino) was 0.97 and the “3-point MACE: patients with event/patients analyzed” value (Ethnicity Not Hispanic/Latino) was 291/2267. The “Key secondary kidney outcome: hazard ratio vs placebo” value (Ethnicity Not Hispanic/Latino) was 0.99, the “Key secondary kidney outcome: patients with event/patients analyzed” value (Ethnicity Not Hispanic/Latino) was 171/2267 and the “Patients with event/patients analysed” value (Ethnicity Not Hispanic/Latino) was 151/2267. For the same molecule, the “Hazard ratio for hospitalised heart failure” value (Ethnicity Not Hispanic/Latino) was 0.87, the “3-point MACE: hazard ratio vs placebo” value (Gender Female) was 0.96 and the “3-point MACE: patients with event/patients analyzed” value (Gender Female) was 152/1346. The “Key secondary kidney outcome: hazard ratio vs placebo” value (Gender Female) was 0.92, the “Key secondary kidney outcome: patients with event/patients analyzed” value (Gender Female) was 117/1346 and the “Patients with event/patients analysed” value (Gender Female) was 74/1346. The “Hazard ratio for hospitalised heart failure” value (Gender Female) was 0.97, the “3-point MACE: hazard ratio vs placebo” value (Gender Male) was 1.06 and the “3-point MACE: patients with event/patients analyzed” value (Gender Male) was 282/2148. The “Key secondary kidney outcome: hazard ratio vs placebo” value (Gender Male) was 1.12, the “Key secondary kidney outcome: patients with event/patients analyzed” value (Gender Male) was 210/2148 and the “Patients with event/patients analysed” value (Gender Male) was 135/2148. For the same molecule, the “Hazard ratio for hospitalised heart failure” value (Gender Male) was 0.87, the “Patients with event/patients analysed” value (Glycated haemoglobin <8.0%) was 107/1915 and the “Hazard ratio for hospitalised heart failure” value (Glycated haemoglobin <8.0%) was 0.78. The “Patients with event/patients analysed” value (Glycated haemoglobin ≥8.0%) was 102/1579, the “Hazard ratio for hospitalised heart failure” value (Glycated haemoglobin ≥8.0%) was 1.05 and the “3-point MACE: hazard ratio vs placebo” value (Glycated hemoglobin <8.0%) was 0.90. For the same molecule, the “3-point MACE: patients with event/patients analyzed” value (Glycated hemoglobin <8.0%) was 229/1915, the “Key secondary kidney outcome: hazard ratio vs placebo” value (Glycated hemoglobin <8.0%) was 1.13 and the “Key secondary kidney outcome: patients with event/patients analyzed” value (Glycated hemoglobin <8.0%) was 186/1915. For the same molecule, the “3-point MACE: hazard ratio vs placebo” value (Glycated hemoglobin ≥8.0%) was 1.20, the “3-point MACE: patients with event/patients analyzed” value (Glycated hemoglobin ≥8.0%) was 205/1579 and the “Key secondary kidney outcome: hazard ratio vs placebo” value (Glycated hemoglobin ≥8.0%) was 0.94. The “Key secondary kidney outcome: patients with event/patients analyzed” value (Glycated hemoglobin ≥8.0%) was 141/1579, the “3-point MACE: hazard ratio vs placebo” value (History of heart failure No) was 1.02 and the “3-point MACE: patients with event/patients analyzed” value (History of heart failure No) was 275/2542. For the same molecule, the “Key secondary kidney outcome: hazard ratio vs placebo” value (History of heart failure No) was 1.07, the “Key secondary kidney outcome: patients with event/patients analyzed” value (History of heart failure No) was 252/2542 and the “Patients with event/patients analysed” value (History of heart failure No) was 96/2542. The “Hazard ratio for hospitalised heart failure” value (History of heart failure No) was 0.92, the “3-point MACE: hazard ratio vs placebo” value (History of heart failure Yes) was 1.01 and the “3-point MACE: patients with event/patients analyzed” value (History of heart failure Yes) was 159/952. The “Key secondary kidney outcome: hazard ratio vs placebo” value (History of heart failure Yes) was 0.95, the “Key secondary kidney outcome: patients with event/patients analyzed” value (History of heart failure Yes) was 75/952 and the “Patients with event/patients analysed” value (History of heart failure Yes) was 113/952.
